From the NIST ThermoML archive (doi:10.1016/j.jct.2018.08.035)

Test: xn = mol fraction of the nth substance listed
Conditions: 100 kPa, Liquid, Vibrating tube method

CCC(O)CC [3-pentanol] + C[N+](=O)[O-]
Conditions	mass density [kg/m3]
289.45 K, x1 = 0.363	996.016
289.45 K, x1 = 0.382	994.795
289.45 K, x1 = 0.407	994.989
289.45 K, x1 = 0.414	995.114
289.45 K, x1 = 0.486	977.635
289.45 K, x1 = 0.488	975.638
289.45 K, x1 = 0.546	951.819
289.45 K, x1 = 0.573	936.914
289.45 K, x1 = 0.587	923.684
289.45 K, x1 = 0.629	901.973
289.46 K, x1 = 0.615	903.573
289.55 K, x1 = 0.266	1011
289.55 K, x1 = 0.3	1005.09
289.55 K, x1 = 0.325	1000.44
289.55 K, x1 = 0.407	993.27
289.55 K, x1 = 0.486	976.784
289.55 K, x1 = 0.546	950.242
289.55 K, x1 = 0.573	934.004
289.55 K, x1 = 0.629	901.33
289.56 K, x1 = 0.246	1011.83
289.56 K, x1 = 0.275	1010.74
289.56 K, x1 = 0.338	998.17
289.56 K, x1 = 0.363	995.361
289.56 K, x1 = 0.382	993.579
289.56 K, x1 = 0.414	993.6
289.56 K, x1 = 0.488	974.397
289.56 K, x1 = 0.587	923.551
289.56 K, x1 = 0.615	903.035
289.65 K, x1 = 0.246	1010.76
289.65 K, x1 = 0.266	1009.81
289.65 K, x1 = 0.275	1009.82
289.65 K, x1 = 0.3	1004.38
289.65 K, x1 = 0.325	999.918
289.65 K, x1 = 0.363	994.656
289.65 K, x1 = 0.382	992.659
289.65 K, x1 = 0.407	991.642
289.65 K, x1 = 0.414	991.992
289.65 K, x1 = 0.486	975.844
289.65 K, x1 = 0.488	973.516
289.65 K, x1 = 0.546	949.056
289.65 K, x1 = 0.573	932.207
289.65 K, x1 = 0.587	923.409
289.65 K, x1 = 0.615	903.013
289.65 K, x1 = 0.629	896.019
289.66 K, x1 = 0.338	997.588
289.75 K, x1 = 0.246	1009.91
289.75 K, x1 = 0.266	1008.57
289.75 K, x1 = 0.275	1008.78
289.75 K, x1 = 0.3	1003.47
289.75 K, x1 = 0.325	999.093
289.75 K, x1 = 0.363	994.035
289.75 K, x1 = 0.382	991.551
289.75 K, x1 = 0.407	989.735
289.75 K, x1 = 0.414	990.174
289.75 K, x1 = 0.486	974.653
289.75 K, x1 = 0.488	972.561
289.75 K, x1 = 0.546	947.686
289.75 K, x1 = 0.573	929.383
289.75 K, x1 = 0.587	924.024
289.75 K, x1 = 0.615	902.898
289.76 K, x1 = 0.338	996.84
289.85 K, x1 = 0.266	1007.2
289.85 K, x1 = 0.275	1007.7
289.85 K, x1 = 0.3	1002.58
289.85 K, x1 = 0.325	998.305
289.85 K, x1 = 0.363	993.362
289.85 K, x1 = 0.382	990.377
289.85 K, x1 = 0.407	988.132
289.85 K, x1 = 0.414	988.452
289.85 K, x1 = 0.486	973.161
289.85 K, x1 = 0.488	971.375
289.85 K, x1 = 0.546	946.847
289.85 K, x1 = 0.573	928.807
289.85 K, x1 = 0.587	917.506
289.86 K, x1 = 0.246	1009.43
289.86 K, x1 = 0.338	996.331
289.86 K, x1 = 0.615	902.789
289.95 K, x1 = 0.266	1005.77
289.95 K, x1 = 0.275	1006.41
